Results as given in article PMC9917560, “Design, Synthesis and Antimicrobial Evaluation of New N-(1-Hydroxy-1,3-dihydrobenzo[c][1,2]oxaborol-6-yl)(hetero)aryl-2-carboxamides as Potential Inhibitors of Mycobacterial Leucyl-tRNA Synthetase” (International Journal of Molecular Sciences, 2023).
Converted amounts (≈) assume the structure as drawn. Where two headings read alike, the source gives them in different places.

Experiments:
[1] = tested on: Candida krusei CCM 8271 (ATCC 6258); assay: Antifungal microdilution broth (EUCAST); assay type: cell-based; conditions: Pichia kudriavzevii, read-out: MIC Candida krusei
[2] = tested on: Staphylococcus aureus subsp. aureus CCM 4223 (ATCC 29213); assay: Antibacterial microdilution broth (EUCAST); assay type: cell-based; conditions: read-out: MIC Staphylococcus aureus subsp. aureus
[3] = tested on: Mycobacterium tuberculosis H37Ra ITM-M006710 (ATCC 9431); assay: Antimycobacterial microdilution (resazurin) vs Mtb H37Ra; assay type: cell-based
[4] = tested on: Escherichia coli CCM 3954 (ATCC 25922); assay: Antibacterial microdilution broth (EUCAST); assay type: cell-based; conditions: Escherichia coli, read-out: MIC Escherichia coli
[5] = tested on: Staphylococcus epidermidis CCM 4418 (ATCC 12228); assay: Antibacterial microdilution broth (EUCAST); assay type: cell-based; conditions: read-out: MIC Staphylococcus epidermidis
[6] = tested on: Mycobacterium avium DSM 44,156 (ATCC 25291); assay: Antimycobacterial microdilution (resazurin) vs M. avium; assay type: cell-based; conditions: Mycobacterium avium, Middlebrook 7H9, resazurin; read-out: MIC M. avium
[7] = tested on: Candida parapsilosis CCM 8260 (ATCC 22019); assay: Antifungal microdilution broth (EUCAST); assay type: cell-based; conditions: Lodderomyces parapsilosis, read-out: MIC Candida parapsilosis
[8] = tested on: Acinetobacter baumannii DSM 30007 (ATCC 19606); assay: Antibacterial microdilution broth (EUCAST); assay type: cell-based; conditions: read-out: MIC Acinetobacter baumannii
[9] = tested on: Lichtheimia corymbifera CCM 8077; assay: Antifungal microdilution broth (EUCAST); assay type: cell-based; conditions: Lichtheimia corymbifera, read-out: MIC Lichtheimia corymbifera
[10] = tested on: Enterococcus faecalis CCM 4224 (ATCC 29212); assay: Antibacterial microdilution broth (EUCAST); assay type: cell-based; conditions: read-out: MIC Enterococcus faecalis
[11] = tested on: Aspergillus flavus CCM 8363; assay: Antifungal microdilution broth (EUCAST); assay type: cell-based; conditions: Aspergillus flavus, read-out: MIC Aspergillus flavus
[12] = tested on: Trichophyton interdigitale CCM 8377 (ATCC 9533); assay: Antifungal microdilution broth (EUCAST); assay type: cell-based; conditions: Trichophyton interdigitale, read-out: MIC Trichophyton interdigitale
[13] = tested on: Aspergillus fumigatus ATCC 204305; assay: Antifungal microdilution broth (EUCAST); assay type: cell-based; conditions: Aspergillus fumigatus, read-out: MIC Aspergillus fumigatus
[14] = tested on: Candida albicans CCM 8320 (ATCC 24433); assay: Antifungal microdilution broth (EUCAST); assay type: cell-based; conditions: Candida albicans, read-out: MIC Candida albicans
[15] = tested on: Pseudomonas aeruginosa CCM 3955 (ATCC 27853); assay: Antibacterial microdilution broth (EUCAST); assay type: cell-based; conditions: read-out: MIC Pseudomonas aeruginosa
[16] = tested on: Mycolicibacterium aurum DSM 43,999 (ATCC 23366); assay: Antimycobacterial microdilution (resazurin) vs M. aurum; assay type: cell-based; conditions: read-out: MIC M. aurum
[17] = tested on: Candida tropicalis CCM 8264 (ATCC 750); assay: Antifungal microdilution broth (EUCAST); assay type: cell-based; conditions: read-out: MIC Candida tropicalis
HepG2 cell line = assay: Cytotoxicity screening, CellTiter 96 assay; conditions: for IC50: Homo sapiens, HepG2, 24 h, read-out: IC50 HepG2
[18] = tested on: Mycobacterium tuberculosis H37Rv CNCTC My 331/88 (ATCC 27294); assay: Microplate Alamar Blue assay vs Mtb H37Rv; assay type: cell-based; conditions: Mycobacterium tuberculosis
[19] = tested on: Mycolicibacterium smegmatis DSM 43,465 (ATCC 607); assay: Antimycobacterial microdilution (resazurin) vs M. smegmatis; assay type: cell-based; conditions: Middlebrook 7H9, resazurin, read-out: MIC M. smeg.
[20] = tested on: Mycobacterium kansasii DSM 44,162 (ATCC 12478); assay: Antimycobacterial microdilution (resazurin) vs M. kansasii; assay type: cell-based; conditions: read-out: MIC M. kansasii
[21] = tested on: Klebsiella pneumoniae CCM 4415 (ATCC 10031); assay: Antibacterial microdilution broth (EUCAST); assay type: cell-based; conditions: Klebsiella pneumoniae, read-out: MIC Klebsiella pneumoniae
[22] = tested on: methicillin-resistant Staphylococcus aureus subsp. aureus (MRSA) CCM 4750 (ATCC 43300); assay: microbe, parasite or virus in culture; assay type: cell-based; conditions: read-out: MIC Methicillin-resistant Staphylococcus aureus subsp. aureus

**Q.** Which MIC ([1]; 24 h) does the source give for `Nc1ncc(Cl)nc1C(=O)Nc1ccc2c(c1)B(O)OC2` [Compound 7, 3-amino-6-chloro-N-(1-hydroxy-1,3-dihydrobenzo[c][1,2]oxaborol-6-yl)pyrazine-2-carboxamide] here?
**A.** > 125 µM

**Q.** What about the MIC ([1]; 48 h) of the same compound?
**A.** > 125 µM

**Q.** And the MIC ([2]; 24 h)?
**A.** > 125 µM

**Q.** And the MIC ([2]; 48 h)?
**A.** > 125 µM

**Q.** And the MIC ([3]; read-out: MIC Mtb H37Ra, Middlebrook 7H9, resazurin, recalculated from µg/mL)?
**A.** > 1850 µM

**Q.** What about the MIC ([4]; 24 h) of the same compound?
**A.** > 125 µM

**Q.** What about the MIC ([4]; 48 h) of the same compound?
**A.** > 125 µM

**Q.** What about the melting point of the same compound?
**A.** 242.9 to 244.4 °C

**Q.** And the MIC ([5]; 24 h)?
**A.** > 125 µM

**Q.** What about the MIC ([5]; 48 h) of the same compound?
**A.** > 125 µM

**Q.** What about the MIC [6] of the same compound?
**A.** 411 µM (≈ 125 µg/mL)

**Q.** And the MIC ([7]; 24 h)?
**A.** > 125 µM

**Q.** What about the MIC ([7]; 48 h) of the same compound?
**A.** > 125 µM

**Q.** What about the MIC ([8]; 24 h) of the same compound?
**A.** > 125 µM

**Q.** What about the MIC ([8]; 48 h) of the same compound?
**A.** > 125 µM

**Q.** What about the MIC ([9]; CCM8077, 24 h) of the same compound?
**A.** > 125 µM

**Q.** What about the MIC ([9]; CCM8077, 48 h) of the same compound?
**A.** > 125 µM

**Q.** What about the MIC ([10]; 24 h) of the same compound?
**A.** > 125 µM

**Q.** And the MIC ([10]; 48 h)?
**A.** > 125 µM

**Q.** What about the MIC ([11]; CCM8363, 24 h) of the same compound?
**A.** > 125 µM

**Q.** And the MIC ([11]; CCM8363, 48 h)?
**A.** > 125 µM

**Q.** And the MIC ([12]; 72 h)?
**A.** > 125 µM

**Q.** What about the MIC ([12]; 120 h) of the same compound?
**A.** > 125 µM

**Q.** And the MIC ([13]; ATCC204305, 24 h)?
**A.** > 125 µM

**Q.** What about the MIC ([13]; ATCC204305, 48 h) of the same compound?
**A.** > 125 µM

**Q.** And the MIC ([14]; 24 h)?
**A.** > 125 µM

**Q.** And the MIC ([14]; 48 h)?
**A.** > 125 µM

**Q.** What about the MIC ([15]; 24 h) of the same compound?
**A.** > 125 µM

**Q.** And the MIC ([15]; 48 h)?
**A.** > 125 µM

**Q.** What about the MIC [16] of the same compound?
**A.** > 1850 µM

**Q.** And the MIC ([17]; 24 h)?
**A.** > 125 µM

**Q.** And the MIC ([17]; 48 h)?
**A.** > 125 µM

**Q.** What about the IC50 (HepG2 cell line) of the same compound?
**A.** > 100 µM

**Q.** And the “toxicity to HepG2 up to highest tested concentration” value (HepG2 cell line; tested up to 500 µM (2, 3), 250 µM (12, 17), 100 µM (6, 7, 11) because of solubility)?
**A.** non-toxic

**Q.** And the MIC ([18]; pH 6.6, read-out: MIC Mtb H37Rv, MABA, Middlebrook 7H9 pH 6.6, recalculated from µg/mL)?
**A.** > 328 µM

**Q.** And the MIC [19]?
**A.** 411 µM (≈ 125 µg/mL)

**Q.** What about the MIC [20] of the same compound?
**A.** > 1850 µM

**Q.** And the MIC ([21]; 24 h)?
**A.** > 125 µM

**Q.** And the MIC ([21]; 48 h)?
**A.** > 125 µM

**Q.** What about the MIC ([22]; 24 h) of the same compound?
**A.** > 125 µM

**Q.** And the MIC ([22]; 48 h)?
**A.** > 125 µM

**Q.** For `O=C(Nc1ccc2c(c1)B(O)OC2)c1ncc[nH]c1=O` [Compound 8, N-(1-hydroxy-1,3-dihydrobenzo[c][1,2]oxaborol-6-yl)-3-oxo-3,4-dihydropyrazine-2-carboxamide], which MIC ([1]; 24h incubation) is on record?
**A.** > 500 µM

**Q.** And the MIC ([1]; 48h incubation)?
**A.** > 500 µM

**Q.** And the MIC ([2]; 24 h)?
**A.** 125 µM (≈ 33.9 µg/mL)

**Q.** And the MIC ([2]; 48 h)?
**A.** 125 µM (≈ 33.9 µg/mL)

**Q.** And the MIC ([3]; Middlebrook 7H9, resazurin, recalculated from µg/mL, read-out: MIC Mtb H37Ra)?
**A.** 231 µM (≈ 62.5 µg/mL)

**Q.** What about the MIC ([4]; 24h incubation) of the same compound?
**A.** > 500 µM

**Q.** And the MIC ([4]; 48h incubation)?
**A.** > 500 µM

**Q.** And the melting point?
**A.** 326.4 to 328.3 °C (dec.)

**Q.** What about the MIC ([5]; 24h incubation) of the same compound?
**A.** 500 µM (≈ 136 µg/mL)

**Q.** What about the MIC ([5]; 48h incubation) of the same compound?
**A.** 500 µM (≈ 136 µg/mL)

**Q.** What about the MIC [6] of the same compound?
**A.** 57.6 µM (≈ 15.6 µg/mL)

**Q.** What about the MIC ([7]; 24h incubation) of the same compound?
**A.** > 500 µM

**Q.** And the MIC ([7]; 48h incubation)?
**A.** > 500 µM

**Q.** And the MIC ([8]; 24h incubation)?
**A.** > 500 µM

**Q.** What about the MIC ([8]; 48h incubation) of the same compound?
**A.** > 500 µM

**Q.** And the MIC ([9]; CCM8077, 24h incubation)?
**A.** > 500 µM

**Q.** What about the MIC ([9]; CCM8077, 48h incubation) of the same compound?
**A.** > 500 µM

**Q.** And the MIC ([10]; 24h incubation)?
**A.** > 500 µM

**Q.** What about the MIC ([10]; 48h incubation) of the same compound?
**A.** > 500 µM

**Q.** And the MIC ([11]; CCM8363, 24h incubation)?
**A.** > 500 µM

**Q.** And the MIC ([11]; CCM8363, 48h incubation)?
**A.** > 500 µM

**Q.** What about the MIC ([12]; 72h incubation) of the same compound?
**A.** > 500 µM

**Q.** What about the MIC ([12]; 120h incubation) of the same compound?
**A.** > 500 µM

**Q.** What about the MIC ([13]; ATCC204305, 24h incubation) of the same compound?
**A.** > 500 µM

**Q.** What about the MIC ([13]; ATCC204305, 48h incubation) of the same compound?
**A.** > 500 µM

**Q.** What about the MIC ([14]; 24h incubation) of the same compound?
**A.** > 500 µM

**Q.** What about the MIC ([14]; 48h incubation) of the same compound?
**A.** > 500 µM

**Q.** What about the MIC ([15]; 24h incubation) of the same compound?
**A.** > 500 µM

**Q.** What about the MIC ([15]; 48h incubation) of the same compound?
**A.** > 500 µM

**Q.** What about the MIC ([16]; Middlebrook 7H9, resazurin) of the same compound?
**A.** 28.8 µM (≈ 7.81 µg/mL)

**Q.** What about the MIC ([17]; 24h incubation) of the same compound?
**A.** > 500 µM

**Q.** What about the MIC ([17]; 48h incubation) of the same compound?
**A.** > 500 µM

**Q.** What about the IC50 (HepG2 cell line) of the same compound?
**A.** > 1000 µM

**Q.** And the MIC ([18]; pH 6.6, MABA, Middlebrook 7H9 pH 6.6, recalculated from µg/mL, read-out: MIC Mtb H37Rv)?
**A.** 92.2 µM (≈ 25 µg/mL)

**Q.** And the MIC [19]?
**A.** 28.8 µM (≈ 7.81 µg/mL)

**Q.** And the MIC [20]?
**A.** 231 µM (≈ 62.5 µg/mL)

**Q.** What about the MIC ([21]; 24h incubation) of the same compound?
**A.** > 500 µM

**Q.** What about the MIC ([21]; 48h incubation) of the same compound?
**A.** > 500 µM

**Q.** And the MIC ([22]; 24 h)?
**A.** 125 µM (≈ 33.9 µg/mL)

**Q.** And the MIC ([22]; 48 h)?
**A.** 125 µM (≈ 33.9 µg/mL)
